Measurements reported in patent US12458637B2, “Targeting WNK1 in blood cancers” (Københavns Universitet, priority 2019, dated 2025).
“Also recorded” adds a separate entry of the source.

Experiments:
blood cancer cell lines = experiment: CellTiter-Glo viability assay, human cell lines; type: cell-based; conditions: FIG. 5
Experimental: Dose-response curves were generated using the CellTiter-Glo® assay (Promega: G7570). BJ-tert, U2OS, MOLM13, THP1, Monomac, MMS1, KMS18, KMS11, MSTo, and H226, cells were seeded in triplicate in round bottom 96 well plates in the presence of varying concentrations of “Compound 12”. After 72 hours the number of viable cells in the cultures were measured using the CellTiter-Glo®. IC50 values were calculated using the Prism software (GraphPad: Prism 7 for Mac OS X). The experiment show the IC50 values for the different human cell lines (FIG. 5).

[1] = system: MLL-AF9 translocated leukemia; experiment: In vivo treatment of leukemic mice (MA9 transplanted); design: species or system mouse; conditions: daily injection of 1.8 mg in sun flower oil, mice transplanted with MA9 cells
Experimental: 1×10^4 leukemic cells were injected into the tail vein of sub-lethally irradiated (450 rad) BL6.SJL mice. Two days after transplantation the mice were injected with 1.8 mg “Compound 12” dissolved into 200 μL sun flower oil or sun flower oil alone (control). A total of 26 mice were used in the experiment, where 14 received oil alone and 12 received “Compound 12”.
The injections were continued daily for a period of 20 days.

[2] = 30 mg/kg single oral dose; cited from earlier work
[3] = Yamada et al., 2017; cited from earlier work
MA9 cells [4] = experiment: Growth curves of MA9 cells; type: cell-based, mouse; conditions: varying concentrations, growth curve, FIG. 4C
Experimental: MA9 cell cultures were grown in triplicate in 24 well plates in the presence of varying concentrations of “Compound 12”. Cells were plated with a density of 50.000 cells per well after which they were counted and replated every 3 days.

MA9 cells [5] = experiment: CellTiter-Glo viability assay, MA9 cells; type: cell-based; conditions: Mus musculus, 72 hours
Experimental: (§1) Dose-response curves were generated using the CellTiter-Glo® assay (Promega: G7570). Cells were seeded in triplicate in round bottom 96 well plates in the presence of varying concentrations of “Compound 12”. After 72 hours the number of viable cells in the cultures were measured using the CellTiter-Glo®. IC50 values were calculated using the Prism software (GraphPad: Prism 7 for Mac OS X).

blood pressure = conditions: 30 mg/kg single oral dose, rodent hypertension models; cited from earlier work
MEFs = experiment: CellTiter-Glo viability assay, mouse embryonic fibroblasts; type: cell-based
Experimental: as §1

WNK1 (P-OXSR1) = experiment: Western blot of Oxsr1 and P-Oxsr1 in MA9 cells; type: cell-based, mouse; conditions: MA9 cells treated for 3 hours
Experimental: Murine MLL-AF9 transformed leukemic cells (MA9) were treated for 3 hours with different concentrations of “Compound 12”. Treated cells were counted and lysed in 1×LSB buffer and an equal to 100.000 cells were loaded on each lane of a 10% SDS-Page gel.
Gels were transferred to nitrocellulose membranes probed with sheep-anti-OXSR1 [S336B] or sheep-anti-P-OXSR1 [S688B] (both from University of Dundee). Binding of the primary antibody was on detected light sensitive films, using rabbit peroxidase conjugated anti-sheep IgG antibody (1 in 30.000 dilution, Abcam: ab6900) followed by enhanced chemiluminescence (Pierce ECL Plus, ThermoFisher: 34577) (FIG. 4B).

phosphorylated OXSR1 = conditions: in cells, Yamada et al., 2017; cited from earlier work

[2H]C([2H])([2H])Nc1nc(-c2cc(C(=O)N3CCN(Cc4ccc(Cl)cc4)CC3)c(Cl)cn2)cs1 [Compound 12, (5-Chloro-2-(2-((methyl-d3)amino)thiazol-4-yl)-pyridin-4-yl)(4-(4-chlorobenzyl)piperazin-1-yl)methanone]
Sensitivity of blood cancer cell lines compared with diploid fibroblasts (blood cancer cell lines; human cell lines vs BJ tert): significantly more sensitive
IC50 (blood cancer cell lines; viability, 72 hours, human cell lines, read-out: IC50 of most of the blood cancer cell lines): ~1000 nM
Lifespan of leukemic mice [1]: significantly extend the life-time; also recorded: increases their lifespan; also recorded: increased lifespan
Concentration [2]: 2000 nM
Toxicity in mice [3]: low toxicity
Growth / proliferation of MA9 cells (MA9 cells [4]): dose-dependent inhibition; also recorded: inhibits growth; also recorded: attenuated growth
IC50 (MA9 cells [5]): ~1000 nM
Blood pressure (blood pressure): some reduction in blood pressure
IC50 (MEFs; Mus musculus, Fibroblast, viability, 72 hours, CellTiter-Glo): > 20000 nM
IC50 in MEFs compared with MA9 cells (MEFs; viability assay, FIG. 4A): significantly higher
Inhibition of WNK1 (phosphorylated OXSR1, Western blot) (WNK1 (P-OXSR1)): inhibits WNK1 in leukemic cells
EC50 (phosphorylated OXSR1): 590 nM
